Inhibition in vivo, ED50 and inhibition data for 19 compounds are collected here from patent US5098613A, “Anti-inflammatory agents” (Eli Lilly and Company, priority 1990, dated 1992).

For orientation: ED50 means the dose that gives a 50% effect, or the effect in half of the subjects. A lower ED50 goes with an effect at a small dose.

Test [1] has as its system inflammation created by injecting carrageenin into the hind paws of rats. In words: Carrageenin Assay. The format is in vivo. Conditions: Rattus norvegicus, ip, 50 mg/kg i.p., prior to carrageenin injection, read-out: Percent Inhibition (Antiinflammatory Activity in the Carrageenin Assay). How it is done: The compounds were evaluated for antiinflammatory activity in the test method described by C. A. Winter, Proc. Soc. Exp. Biol. Med., 111, 544 (1962). In this test, inflammation is created by injecting carrageenin into the hind paws of rats. Test compounds are administered prior to injection to determine percent inhibition of the subsequent inflammation in comparison with control animals.

In test [2] the test system is Arachidonic Acid Induced Ear Edema. In words: Arachidonic Acid-Induced Ear Edema Assay. The format is in vivo, Female BALB/C mice. The following applies: Mus musculus, 1 h, topical, one hour prior to arachidonic acid, read-out: Percent Inhibition of Ear Swelling; for inhibition in vivo at 0.05 %: 0.05% in ethanol gel; for inhibition in vivo at 1 %: 1% in ethanol gel. How it is done: Female BALB/C mice (Charles River; 18-20 rams) were divided into groups of five. Arachidonic acid was dissolved in ethanol at a concentration of 200 mg/ml. Each mouse received 2 mg/ear of arachidonic acid on the inner surface of the right ear. This dose of phlogistic was applied by an automatic pipette in 10 mcl volumes. The left ear (control) received ethanol. Drugs were applied topically in an ethanol-based gel to the entire outer surface of both ears one hour prior to arachidonic acid application. Edema was measured by the increase in ear weight. An hour after arachidonic acid solution or vehicle was applied, an ear sample of 7 mm in diameter was obtained from both ears. Ear edema was calculated by subtracting the […], dividing by the weight of the left/Control ear, and averaging the results for each group of mice according to compound and concentration.

Test [3] relates to shock after E. coli LPS and galactosamine (GALN) challenge. Nature of the test: Mouse Endotoxin Shock Assay. The format is in vivo, C57BL/6 male mice. The following applies: LPS/GALN s.c. challenge, results 48 hours after challenge, Reed Muench Method. How it is done:
Compounds were given to 18-20 g C57BL/6 male mice using various regimens depending upon mode of administration. Control animals received corresponding vehicles only. The mice were then challenged with 0.2 ml of chromatographically purified 0111:B4 E. coli LPS and galactosamine hydrochloride (GALN) given subcutaneously (back of the neck). GALN was given at an approximate dose of 500 mg/kg whereas the LPS dose ranged between 0.3-1.2 μg/mouse (15-60 μg/k9). Control animals generally die of shock 7-15 hours after administration of LPS/GALN although a small number (0-5%) may die 24-48 hours after such administration. Calculation of the EDso for each compound was performed using the Reed Muench Method for results obtained 48 hours after challenge.

The target of test [4] is T1, leukotriene B4 specific receptor on the membrane of human neutrophils (Homo sapiens, UniProt Q15722).
T1 construct: incubating neutrophils (1×10^7 cells) with 0.1-0.2 nM ^3 H-LTB4; endogenous in cells; host or cells: human peripheral blood neutrophils (buffy coats of two blood donors)
Nature of the test: Inhibition of Binding of ^3 H-LTB4 to Peripheral Human Neutrophils. The following applies: 4° C., 10 minutes; for inhibition at 10 µM: drug concentration 10^-5 M, read-out: LTB4 Binding Inhibition; for inhibition at 1 µM: drug concentration 10^-6 M. The essentials:
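Freshly isolated human donor neutrophils (1×10^7 cells) in HBSS/0.1% ovalbumin pH 7.3 were incubated with 0.1-0.2 nM ^3H-LTB4 and compound at 1×10^-5 or 1×10^-6 M for 10 min at 4 °C. Bound ligand was separated by centrifugation through phthalate oil and counted, then corrected for nonspecific binding and compared with compound-free control.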

Test [5] relates to IL-1 induced T-cell Proliferation. Nature of the test: Anti IL-1 Activity (Thymocyte Assay): suppression of IL-1 induced T-cell proliferation. The class given is cell-based, C3H/HeJ male mice. Conditions: mouse thymocytes, 48 hours, read-out: Percent T-cell suppression; for inhibition at 1 µg/mL: 1 mcg/ml; for inhibition at 10 µg/mL: 10 mcg/ml. How it is done: Thymus from 3-4 week old C3H/HeJ male mice and were passed through a #100 mesh screen to make a single cell suspension. The cells were suspended in RPMI-1640 supplemented with 2×10^-5 M 2-mercaptoethanol, 3% fetal calf serum, and 1% Penicillin/Streptomycin. The cell suspension was placed in a tissue culture flask and incubated at 37° C. in 5% carbon dioxide in air for 1-2 hours. The thymocytes were decanted, leaving adherent cells behind, and the liquid was centrifuged at 1400 rpm for 10 minutes. After decanting the supernatant, the cells were resuspended and counted with a hemocytometer. The density was adjusted to […]. Fifty μ1 of the suspension were added to each well of a 96-well microtiter plate, followed by the addition of 25 μl of PHA and 25 μl IL-1 (1:25 dilution of a 10 mcg/ml stock solution) per well.
Each compound to be tested was dissolved in 30% DMSO/70% PBS to make a stock solution of 1 mg/ml. Fifteen μl of each compound were added to 300 μl of media in the serial dilution plate. Twenty-five μl of each drug were added to the test plate in quadruplicate wells across the plate. The plate was incubated at 37° C. in 5% carbon dioxide in air for 48 hours. The wells were pulsed with tritiated thymidine (5 μCi.well) for 4 hours before harvesting on a Skatron cell harvester. The filter discs were placed in mini-vials, scintillation fluid (Tol-Pop) was added, and the vials counted. The percent of counts for each vial compared with control samples wherein no compound was added (vehicles only) was determined for each compound and are reported as Table III below as the percent T-ce1 suppression.

T1 sequence (Q15722 whole entry): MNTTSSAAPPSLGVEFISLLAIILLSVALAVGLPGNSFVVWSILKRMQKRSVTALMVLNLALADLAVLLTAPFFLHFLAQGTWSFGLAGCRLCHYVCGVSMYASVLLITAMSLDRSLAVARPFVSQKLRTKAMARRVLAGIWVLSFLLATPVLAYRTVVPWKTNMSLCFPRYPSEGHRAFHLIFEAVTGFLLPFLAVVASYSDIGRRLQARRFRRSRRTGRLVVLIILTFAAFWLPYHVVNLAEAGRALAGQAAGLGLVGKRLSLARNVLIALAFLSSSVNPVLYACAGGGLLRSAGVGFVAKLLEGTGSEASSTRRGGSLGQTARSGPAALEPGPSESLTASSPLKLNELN

Turning to `C=CCc1cc(C(C)=O)c(O)cc1OCc1ccccc1` [Example 47, 2-Hydroxy-4-benzyloxy-5-allylacetophenone], in test [1], the inhibition in vivo at 50 mg/kg lay in the range of 53 to 65%. For the same compound, in test [2], the inhibition in vivo at 0.05 % was 52%. Also, in test [3], it took a dose of 24 mg/kg to reach the 50% effect level (ED50). Moreover, in test [4], the inhibition at 10 µM stood at 32% and the inhibition at 1 µM was determined as 5%.

Turning to `CCCc1cc(C(C)=O)c(O)cc1OCCCc1ccccc1` [Example 53, 2-Hydroxy-4-(3-phenylpropoxy)-5-propyl-acetophenone], the inhibition in vivo at 50 mg/kg in test [1] lay within 50 to 60%. For the same compound, the inhibition in vivo at 0.05 % in test [2] came to 24%. Also, in test [4], the inhibition at 10 µM worked out at 5% and the inhibition at 1 µM is 13%.

Consider `CCc1cc(C(C)=O)c(O)cc1OCCCCc1nn[nH]n1` [Example 110, 5-Ethyl-2-hydroxy-4-[4-(lH-tetrazol-5-y)butoxy]acetophenone], for which, in test [1], the inhibition in vivo at 50 mg/kg was found to be 64%. For the same compound, the inhibition in vivo at 1 % in test [2] turned out to be 58%. Moreover, in test [4], the inhibition at 10 µM came to 49% and the inhibition at 1 µM stood at 19%.

Take `C=CCc1cc(C(C)=O)c(O)cc1OCc1cccc(C)c1` [Example 51, 2-Hydroxy-4-(3-methylbenzyloxy)-5-allyl-acetophenone]: the inhibition in vivo at 50 mg/kg in test [1] is 79%. The inhibition in vivo at 0.05 % in test [2] is 43%. Further, in test [2] (0.1% in ethanol gel), the inhibition in vivo at 0.1 % was 31%. In test [3], this compound displayed an ED50 of 27 mg/kg. For the same compound, in test [4], the inhibition at 10 µM was 24% and the inhibition at 1 µM turned out to be 32%.

As for `CCc1cc(C(C)=O)c(O)cc1OCCCC(C)(C)c1nnn[nH]1` [Example 136, 1-(5-Ethyl-2-hydroxy-4-{[4-methyl-4-(1H-tetrazol-5-yl)pentyl]oxy}phenyl)ethanone], in test [1], the inhibition in vivo at 50 mg/kg came out at 41%. In test [4], the inhibition at 10 µM was found to be 100% and the inhibition at 1 µM is 77%.

For `C=CCc1cc(C(C)=O)c(O)cc1OCc1ccccc1C#N` [Example 49, 2-[(4-Acetyl-5-hydroxy-2-allylphenoxy)-methyl]benzonitrile], the inhibition in vivo at 50 mg/kg in test [1] was determined as 43%. In addition, the inhibition in vivo at 0.05 % in test [2] came to 31%. In test [3], the ED50 was over 50 mg/kg. In test [4], the inhibition at 10 µM stood at 47% and the inhibition at 1 µM was 15%.

On to `C=CCc1cc(C(C)=O)c(O)cc1OCCCCCC(=O)NO` [Example 100, 6-(4-Acetyl-5-hydroxy-2-allylphenoxy)-droxyhexanamide], for which the inhibition in vivo at 50 mg/kg in test [1] stood at 38%. In addition, the inhibition in vivo at 1 % in test [2] was 18%. Also, in test [4], the inhibition at 10 µM is 84% and the inhibition at 1 µM was determined as 28%.

On to `CCc1cc(C(C)=O)c(O)cc1OCCCCCCC(=O)N(C)C` [Example 98, 7-(4-Acetyl-2-ethyl-5-hydroxyphenoxy)-N,N-dimethylheptanamide], for which the inhibition in vivo at 1 % in test [2] is 17%. Moreover, in test [5], the inhibition at 1 µg/mL came to 14% and the inhibition at 10 µg/mL came to 85%. Also, in test [4], the inhibition at 10 µM is 100% and the inhibition at 1 µM was determined as 61%.

In the case of `CCc1cc(C(C)=O)c(O)cc1OCCCCC#N` [Example 19, 5-(4-Acetyl-2-ethyl-5-hydroxyphenoxy)-pentanenitrile], the inhibition in vivo at 50 mg/kg in test [1] amounted to 26%. In test [4], the inhibition at 10 µM is 90% and the inhibition at 1 µM was 61%.

In the case of `CCc1cc(C(C)=O)c(OC)cc1OCc1cccc(C#N)c1` [Example 114], the inhibition in vivo at 0.01 % in test [2] (0.01% in ethanol gel) amounted to 44%. Further, the inhibition in vivo at 0.05 % in test [2] came to 40%. In addition, in test [4], the inhibition at 10 µM was 52% and the inhibition at 1 µM was 8%.

`CCc1cc(C(C)=O)c(O)cc1OCc1cccc(C(=O)OC)c1` [Example 93] came in with a median effective dose (ED50) in test [3] of 25 mg/kg. In test [4], the inhibition at 10 µM was 64% and the inhibition at 1 µM was determined as 22%.

Take `CCc1cc(C(C)=O)c(O)cc1OCCCCCCC#N` [Example 20, 7-(4-Acetyl-2-ethyl-5-hydroxyphenoxy)-heptanenitrile]: in test [1], the inhibition in vivo at 50 mg/kg came to 19%. In addition, in test [5], the inhibition at 1 µg/mL amounted to 39% and the inhibition at 10 µg/mL turned out to be 99%. Moreover, in test [4], the inhibition at 10 µM came to 102% and the inhibition at 1 µM was determined as 72%.

As for `CCc1cc(C(C)=O)c(O)cc1OCCCCCCc1nnn[nH]1` [Example 140, 1-(5-Ethyl-2-hydroxy-4-{[6-(1H-tetrazol-5-yl)-hexyl]oxy}phenyl)ethanone], in test [1], the inhibition in vivo at 50 mg/kg is 31%. Further, in test [4], the inhibition at 10 µM is 94% and the inhibition at 1 µM stood at 59%.

On to `C=CCc1cc(C(C)=O)c(O)cc1OCCCCCCSC` [Example 78, 2-Hydroxy-4-[6-(methylthio)hexyloxy]-5-allylaoetophenone], for which, in test [2], the inhibition in vivo at 1 % was 46%. Also, in test [4], the inhibition at 10 µM was 78% and the inhibition at 1 µM turned out to be 38%.

Consider `CCc1cc(C(C)=O)c(O)cc1OCCCCCC(C)(C)C(=O)O` [Example 87, 7-(4-Acetyl-2-ethyl-5-hydroxyphenoxy)-2,2-dimethylheptanoic acid], for which the inhibition in vivo at 50 mg/kg in test [1] came to 15%. For the same compound, the inhibition in vivo at 1 % in test [2] came out at 3%. Besides, in test [4], the inhibition at 10 µM amounted to 104% and the inhibition at 1 µM is 73%. Besides, the inhibition at 0.1 µM in test [4] (drug concentration 10^-7 M) turned out to be 20%.

In test [3], `CCc1cc(C(C)=O)c(O)cc1OCc1cccc(F)c1` [Example 54, 5-Ethyl-4-(3-fluorobenzyloxy)-2-hydroxy-acetophenone] had an ED50 of 21 mg/kg. In addition, in test [4], the inhibition at 10 µM worked out at 42% and the inhibition at 1 µM was 32%.

Turning to `CCc1cc(C(C)=O)c(O)cc1OCCCCc1nnn(C)n1` [Example 123, 2-Hydroxy-4-[4-(2-methyl-2H-tetrazol-5-yl)butoxy]-5-ethylacetophenone], the inhibition in vivo at 50 mg/kg in test [1] was 55%. Also, in test [2], the inhibition in vivo at 1 % worked out at 58%. Besides, in test [5], the inhibition at 1 µg/mL was 36% and the inhibition at 10 µg/mL came to 90%. Further, in test [4], the inhibition at 10 µM was determined as 98% and the inhibition at 1 µM is 60%.

For `CCc1cc(C(C)=O)c(O)cc1OCc1cccc(SC)c1` [Example 59, 4-(3-Methylmercaptobenzyloxy)-5-ethyl-2-hydroxyacetophenone], the inhibition in vivo at 0.05 % in test [2] stood at 0%. In addition, in test [4], the inhibition at 10 µM is 58% and the inhibition at 1 µM came out at 23%.

Take `C=CCc1cc(C(C)=O)c(O)cc1OCc1cccc(-c2nnn(C)n2)c1` [Example 121]: the inhibition in vivo at 0.05 % in test [2] was found to be 0%. In addition, in test [4], the inhibition at 10 µM was 27 to 38% and the inhibition at 1 µM fell in the range of 34 to 38%.
